# Assay results taken from patent US6242564A (priority 1992, dated 2001).
# What was measured:
# HTLV-III virus (HIV) = test: Blockade of viral infection of human T cells (reverse transcriptase activity); type: cell-based; details: for Rank order of potencies in inhibiting receptor binding and viral infectivity: FIGS. 2c, 3
# Protocol: The treated cells were then panned on a plastic Petri dish that was coated with goat [F(ab')2 ] anti-mouse immunoglobulin (Sero Lab, Eastbury, Mass.) for 20 min at 4° C. The nonadherent cells were then removed, washed, and analyzed for reactivity by flow cytometry. […] Cells were then cultured with phytohemagglutinin (1 μg/ml) for 72 hrs and exposed to HIV as described below. Infected cells were phenotypically characterized when cytotoxicity assays were performed.
# The HTLV-III virus used for infection was isolated from an interleukin 2 (IL-2)-dependent cultured T-cell line established from fresh AIDS patient material and passaged into HuT 78, permissive IL-2-independent cell line.
# Each determination was performed in duplicate.
# [1] = system: T4 antigen (gp 120 receptor) on rat hippocampal membranes; test: Displacement of specific 125I-gp 120 binding to fresh rat hippocampal (brain) membranes
# Protocol: ETLV-IIIb isolate of HIV was propaged in H9 cells, and the gp 120 was isolated by immunoaffinity chromatography and preparative NaDodSO4 /PAGE. Purified gp 120 was labeled with 125 by the chloramine-T method.
# Fresh human, monkey, and rat hippocampus were quickly homogenized (POLYTRON, Brinkmann Instruments) in 100 vol. of ice-cold 50 mM Hepes (pH 7.4). The membranes collected by centrifugation (15,000×g) were washed in the original buffer volume and were used fresh or stored at -70° C. Before use, brain membranes and highly purified T cells were preincubated for 15-30 min in phosphate-buffered saline (PBS). Preincubated membranes derived from 2 mg (initial we weight) of brain (α100 μg of protein) were incubated with 28,000 cpm of 125I -gp 120 for 1 hour at 37° C. in 200 μl (final volume) of 50 mM Hepes containing 0.1% bovine serum albumin and the peptidase inhibitors bacitracin (0.005%), aprotinin (0.005%), leupeptin (0.001%), and chymostatin (0.001%). Incubations were rapidly vacuum-filtered and counted to determine the receptor-bound material.
# Each determination was performed in triplicate; the results of one experiment, which was performed three times with similar results, is shown. Specific binding (FIG. 2b) displaceable by 10 μg/ml of OKT4 and 4A ranged between 27 and 85% of total binding, which was 2,201±74 cpm in the experiment shown.
# [2] = biological target: HIV viral receptors, such as T4 (Homo sapiens, UniProt P01730); test: General statements of receptor binding / activity, test not specified
# gp 120 = details: in vitro; cited from earlier work
# HIV = details: in vitro; cited from earlier work
compound,measurement,setting,value
C[C@@H](N)C(=O)N[C@@H](CO)C(=O)N[C@H](C(=O)N[C@H](C(=O)N[C@H](C(=O)N[C@@H](CC(N)=O)C(=O)N[C@@H](Cc1ccc(O)cc1)C(=O)N[C@H](C(N)=O)[C@@H](C)O)[C@@H](C)O)[C@@H](C)O)[C@@H](C)O [D-[Ala]1-peptide T-amide],Rank order of potencies in inhibiting receptor binding and viral infectivity,HTLV-III virus (HIV),D-[Ala]1 -peptide T-amide>D-[Ala]1 -peptide T>peptide T>D-[Thr]8 -peptide T-amide
C[C@H](N)C(=O)N[C@@H](CO)C(=O)N[C@H](C(=O)N[C@H](C(=O)N[C@H](C(=O)N[C@@H](CC(N)=O)C(=O)N[C@@H](Cc1ccc(O)cc1)C(=O)N[C@@H](C(N)=O)[C@H](C)O)[C@@H](C)O)[C@@H](C)O)[C@@H](C)O [D-[Thr]8-peptide T-amide],Rank order of potencies in inhibiting receptor binding and viral infectivity,HTLV-III virus (HIV),D-[Ala]1 -peptide T-amide>D-[Ala]1 -peptide T>peptide T>D-[Thr]8 -peptide T-amide
same,"Concentration required for significant inhibition of viral infection, relative to the active peptides",HTLV-III virus (HIV); human T cells,100 fold
same,Blockade of viral infectivity (in words),"HTLV-III virus (HIV); human T cells, FIG. 3",greatly reduced blockade of viral infection
same,Loss of receptor binding activity versus peptide T,[1],≥ 100 fold
"CYS-THR-THR-ASN-TYR-THR-CYS (CTTNYTC; printed: CYS-THR-THR-ASN-TYR-THR-CYS) [seven amino acid peptide, core with added cysteines]",Activity (test not specified),[2],also active
VIP: Vasoactive Intestinal Peptide,Binding of gp 120 to brain tissue,gp 120,inhibit
same,HIV replication in cell culture,HIV,inhibit
